Measured values: US12060360B2, “Lysyl oxidase inhibitors” (The Institute of Cancer Research: Royal Cancer Hospital, priority 2017, dated 2024)

What was measured:
[1] = tested on: MMTV-PyMT breast transgenic model lung metastases; experiment: MMTV-PyMT transgenic mouse breast cancer model, lung metastases quantification T/C; type: in vivo; settings: 200 mg/kg po qd, treated/vehicle control, p<0.05
Description: MMTV-PyMT (Guy et al, 1992) (FVB) female mice were randomized by non-statistical methods to LOX inhibitor treatment groups from day 70 post-birth, when animals had no detectable tumour. Mice were treated daily by oral gavage with LOX inhibitor in vehicle, or daily vehicle (5% DMSO/2.5% Tween20 in water) by oral gavage. Tumour size was determined unblinded by caliper measurements of tumour length, width and depth and volume was calculated as 0.5236×length×width×depth (mm). In all experiments, mice were humanely killed and mammary tumours and lungs were collected when the primary tumours reached ethical limits or signs of ill health.
For lung metastases quantification, all mouse tissue samples were fixed in 10% formalin (Sigma) and embedded in paraffin. Samples were sectioned and hematoxylin and eosin (H&E) stained. Samples were imaged with a Leica CN400 slide scanner. Lung metastases were manually selected using Pen tool in ImageScope. Lung metastases number was counted and area was measured using ImageScope. The investigator was blinded to the experimental groups. The ratio of average metastases surface between compound treated and vehicle control treated (TIC) is calculated. The ratio of average metastases numbers between compound treated and vehicle control treated (T/C) is also calculated. Reduction in metastases area and/or in metastatses number in the compound treated group compared to vehicle-treated control group results in T/C<1. The antimetastatic efficacy of LOX inhibitors described in this invention, as measured by T/C in a model of breast cancer metastasising to lungs is shown in Table 2 and is significant (p<0.05) for all the data presented.

[2] = tested on: SW620 human colorectal carcinoma cells (mutant RAS); experiment: SW620 xenografts, primary tumour volume T/C; type: in vivo; settings: 200 mg/kg po qd; ratio of average tumour volume treated/vehicle control; p<0.05
Description: All procedures involving animals were approved by the Animal Welfare and Ethical Review Body of the Institute of Cancer Research and Cancer Research UK Manchester Institute in accordance with National Home Office regulations under the Animals (Scientific Procedures) Act 1986 and according to the guidelines of the Committee of the National Cancer Research Institute Tumour size was determined by caliper measurements of tumour length, width and depth and volume was calculated as volume=0.5236×length×width×depth (mm).
SW620 xenografts: NCr mice were inoculated subcutaneously in the right flank with 5×10^6 SW620 cells at 100 ul suspension per animal. Groups of 7-8 mice were assigned to treatment following stratified allocation of tumour volumes with a median size of circa 100 mm^3. […] Tumours and weights are measured twice weekly using calipers. […] Frozen samples are kept at −80 degree centigrade until being analysed and the fixed samples stained according to the desired marker.
For therapeutic efficacy assessment, the ratio of average tumour volume between compound treated and vehicle control treated (T/C) is calculated. […] The efficacy of LOX inhibitors described in this invention, as measured by T/C in a pancreatic cancer model, a colorectal cancer model and a breast cancer model is shown in Table 2 and is significant (p<0.05) for all the data presented.

Question: `CCOc1ccc(N2C[C@H]3CN(CCCC#N)C[C@@H]2C(C)(C)C3)cc1` [Example 42, 4-((1R,5S)-6-(4-ethoxyphenyl)-9,9-dimethyl-3,6-diazabicyclo[3.2.2]nonan-3-yl)butanenitrile] was tested. Which “T/C MMT-PyMT breast transgenic model - metastases b) Area” value ([1]; lung metastases area) did it give?
Answer: Its value is “b) 0.013”.

Question: What about the “T/C MMT-PyMT breast transgenic model - metastases a) Count” value ([1]; lung metastases number) of the same molecule?
Answer: Its value is “a) 0.16”.

Question: And the “T/C SW620 human colorectal carcinoma cells (mutant RAS) - primary tumour” value [2]?
Answer: The value was 0.54.
